Data taken from BindingDB's records for doi:10.1021/acs.jmedchem.6b01918 (Bristol Myers Squibb, 2017).

Assay: Inhibition of Nav1.7 in C57BL/6 […] embryonic DRG cells assessed as blockade of spontaneous neuronal firing by Maestro microelectrode array analysis

Compound N[C@H]1CC[C@@H](CNc2cc(F)c(S(=O)(=O)Nc3nccs3)cc2Cl)CC1 has an IC50 of 1.2 nM.
